Test results: US7364719B2, “Vasoregulating compounds and methods of their use” (The United States of America as represented by the …, priority 2002, dated 2008)
Blank lines part the entries; values can stand above or below the compound they belong to. Bridges are numbered along the chain shown (N, C = ends). Where no end group is shown, it is not given here.

Legend:
hypertensive SHR rats = assay: Arterial blood pressure in hypertensive SHR rats after IP MMP-2 inhibitor; assay type: in vivo, rat; settings: 5 mg IP
[1] = test system: Male 10-week-old Lewis/ssncr rats; assay: Blood pressure measurements in rats after intravenous peptide injection; assay type: in vivo, rat
Procedure: Blood pressure measurements. Male 10-week-old Lewis/ssncr rats (SAIC, Frederic, Md.) were anesthetized with 3% halothane, intubated, and maintained with 1% halothane in 70% nitrous oxide and 30% oxygen (VMS Anesthesia Machine, Matrx, Medical Inc., Orchard Park, N.Y.) at 82 strokes/minute. Rectal temperature was monitored through the experiment. A PE50 catheter was placed on the right femoral artery and arterial blood pressure was recorded through a P23XL transducer (Grass Instruments, Quincy, Mass.). Peptides were injected into the right femoral vein through another catheter. To confirm that changes in blood pressure were not an artifact of the anesthesia, the experiments were repeated in conscious animals. After catheters were placed under anesthesia, the animals were allowed to recover for 24-48 hours before taking blood pressure measurements. All procedures were performed under a protocol approved by the National Institutes of Health.

[2] = biological target: T1, AM receptor in Rat2 cells (Rattus norvegicus, UniProt Q63118); assay: Measurement of cAMP response in Rat2 cells (radioimmunoassay); assay type: cell-based; settings: for intracellular elevation of cAMP: peptides applied 5 minutes, versus PBS control
T1 construct: Rat2 is a fibroblast cell line that contains a well characterized AM receptor; host or cells: Rat2 rat fibroblast cell line
Procedure: Measurement of cAMP response. The rat fibroblast cell line Rat2 was obtained from the American Tissue Culture Collection (Manassas, Va.) and kept in RPMI-1640 medium supplemented with 10% fetal calf serum (Invitrogen). Accumulation of intracellular cAMP was measured as described (Pío et al., J. Biol. Chem. 276:12292-12300, 2001). Cells were seeded in 24-well plates at 2×10^4 cells/well and incubated at 37° C. in 5% CO2 until they reached 80% confluency. Before the assay, cells were incubated for 15 minutes in TIS medium (RPMI-1640 plus 10 μg/ml transferrin, 10 μg/ml insulin, and 50 nM sodium selenite) containing 1% bovine serum albumin, 1 mg/ml bacitracin, and 100 μM isobutylmethylxanthine. Peptides were applied in the same medium for 5 minutes at the indicated concentrations in a volume of 250 μl. The reaction was terminated by adding an equal volume of ice-cold ethanol. cAMP contents were measured using the Biotrac cAMP radioimmunoassay (Amersham).
To determine if AM peptide fragments elicit their hypotensive and hypertensive effects via the AM receptor, their cAMP response in fibroblasts was examined.

blood pressure = settings: Kitamura et al. 2001; cited from earlier work
anesthetized rats = settings: Watanabe et al. 1996; cited from earlier work
Human recombinant MMP-2 = biological target: T2, Human recombinant MMP-2 (Homo sapiens, UniProt P08253); assay: Digestion reactions with MMP-2 (gel, HPLC); assay type: biochemical; settings: low salt collagenase buffer, absence of factor H
T2 construct: made in house
T2 sequence (P08253 110-660): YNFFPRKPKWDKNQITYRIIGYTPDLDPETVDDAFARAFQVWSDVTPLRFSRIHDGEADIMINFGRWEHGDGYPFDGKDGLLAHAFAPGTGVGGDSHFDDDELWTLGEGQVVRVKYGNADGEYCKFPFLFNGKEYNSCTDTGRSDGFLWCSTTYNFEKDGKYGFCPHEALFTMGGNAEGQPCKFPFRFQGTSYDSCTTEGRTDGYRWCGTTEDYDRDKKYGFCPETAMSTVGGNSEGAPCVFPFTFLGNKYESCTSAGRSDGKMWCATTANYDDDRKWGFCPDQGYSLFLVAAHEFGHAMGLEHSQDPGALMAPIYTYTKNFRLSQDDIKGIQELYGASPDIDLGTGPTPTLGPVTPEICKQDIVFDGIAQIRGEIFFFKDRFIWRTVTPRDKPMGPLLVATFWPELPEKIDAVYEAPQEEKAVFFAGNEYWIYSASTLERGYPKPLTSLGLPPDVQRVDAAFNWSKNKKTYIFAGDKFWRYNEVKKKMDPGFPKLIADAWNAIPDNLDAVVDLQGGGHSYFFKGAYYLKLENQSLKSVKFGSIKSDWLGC
Procedure: (§1) Digestion reactions. Synthetic AM (240 μg/reaction) was exposed to 11.5 μg MMP-2 or MMP-9 in low salt collagenase buffer (50 mM Tris, pH 7.5, 50 mM NaCl, 0.02% Brig) for different periods of time in the presence or absence of 6 mg factor H. These amounts correspond to an approximate molar ratio of 1:250:250 (enzyme:AM:factor H). The reaction was stopped with EDTA. Digestion reactions were run in 16% Tricine gels (Invitrogen, Carlsbad, Calif.) under reducing conditions and stained with Gel Code Blue Stain Reagent (Pierce, Rockford, Ill.).
High performance liquid chromatography (HPLC). Digestion reactions were also loaded into an analytical reverse phase R2H 5×100 mm HPLC column (Poros, Applied Biosystems, Foster City, Calif.) in a 10-60% acetonitrile gradient over 10 minutes and the protein peaks eluted from the column were detected with a wavelength of 230 nm.

Human recombinant MMP-9 = biological target: T3, Human recombinant MMP-9 (Homo sapiens, UniProt P14780); assay: Digestion reactions with MMP-9 (gel); assay type: biochemical; settings: low salt collagenase buffer
T3 construct: made in house
Procedure: as §1

[3] = anesthetized rats, injection into femoral vein

T1 sequence (Q63118 23-464 limits assumed): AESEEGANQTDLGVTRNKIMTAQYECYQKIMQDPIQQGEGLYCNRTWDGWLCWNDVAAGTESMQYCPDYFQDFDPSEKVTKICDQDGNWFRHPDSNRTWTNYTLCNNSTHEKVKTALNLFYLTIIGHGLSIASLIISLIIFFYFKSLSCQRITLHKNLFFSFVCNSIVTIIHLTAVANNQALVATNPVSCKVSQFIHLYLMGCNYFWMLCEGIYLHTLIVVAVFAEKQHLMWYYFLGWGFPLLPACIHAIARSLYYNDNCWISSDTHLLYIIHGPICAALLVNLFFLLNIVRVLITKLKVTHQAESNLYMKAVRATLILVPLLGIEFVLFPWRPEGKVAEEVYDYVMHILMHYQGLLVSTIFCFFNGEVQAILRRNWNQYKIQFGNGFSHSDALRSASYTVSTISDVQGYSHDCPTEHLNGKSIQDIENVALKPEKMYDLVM
T1 sequence (Q9JHJ1 46-182 partner): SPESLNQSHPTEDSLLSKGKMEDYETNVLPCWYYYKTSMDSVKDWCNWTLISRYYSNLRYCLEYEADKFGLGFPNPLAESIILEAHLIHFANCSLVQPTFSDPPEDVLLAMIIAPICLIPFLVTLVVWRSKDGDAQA
T3 sequence (P14780 94-707): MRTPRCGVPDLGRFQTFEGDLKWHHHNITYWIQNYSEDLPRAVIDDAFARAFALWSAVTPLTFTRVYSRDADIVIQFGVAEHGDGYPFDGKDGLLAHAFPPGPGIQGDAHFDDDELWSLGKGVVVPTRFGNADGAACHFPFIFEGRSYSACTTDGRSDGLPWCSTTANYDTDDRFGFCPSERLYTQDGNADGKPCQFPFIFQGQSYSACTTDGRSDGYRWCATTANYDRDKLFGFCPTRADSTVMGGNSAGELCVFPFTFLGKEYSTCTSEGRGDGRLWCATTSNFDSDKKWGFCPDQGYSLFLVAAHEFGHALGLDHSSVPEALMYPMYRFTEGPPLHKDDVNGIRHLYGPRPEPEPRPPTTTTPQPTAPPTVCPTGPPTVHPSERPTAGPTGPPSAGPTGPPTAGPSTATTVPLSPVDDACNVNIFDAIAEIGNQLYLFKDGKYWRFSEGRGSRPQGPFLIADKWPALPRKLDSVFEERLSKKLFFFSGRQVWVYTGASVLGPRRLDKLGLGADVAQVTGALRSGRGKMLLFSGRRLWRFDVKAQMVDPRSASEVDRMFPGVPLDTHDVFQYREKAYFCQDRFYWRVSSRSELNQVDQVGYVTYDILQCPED

Compound: CNC(=O)[C@H](Cc1ccccc1)NC(=O)[C@H](CC(C)C)[C@H](CSc1cccs1)C(=O)NO [BB-94, Batimastat]
- drop in blood pressure (hypertensive SHR rats): about 80 mm of Hg
- time after injection at which blood pressure dropped (hypertensive SHR rats): 20 min
- time blood pressure remained at the reduced level (hypertensive SHR rats): at least 2.5 hours

Compound: AM(8-52): AM fragment generated by MMP-2 digestion; maintains intramolecular ring structure and α-amide; synthesized (FQGLRSFGCRFGTCTVQKLAHQIYQFTDKDKDNVAPRSKISPQGY-NH2; disulfide 9-14 (inferred); UniProt P35318 102-146, looked up, fragment)
- effect on blood pressure [1, 3]: induced hypotension
- intracellular elevation of cAMP [2]: equal to the one induced by the intact AM molecule

- effect on cAMP response elicited by intact AM (1-52) ([2]; different (increasing) concentrations of peptide added with AM): did not affect the response
Compound: AM(11-22): peptide consisting of amino acids 11-22 of adrenomedullin (LRSFGCRFGTCT; PEPTIDE (1)..(12) Active peptide AM(11-22), corresponding to positions 11-22 of adrenomedullin (SEQ ID NO 3) and positions 105-116 of preproadrenomedullin (SEQ ID NO 2).; listed as Homo sapiens)
- vasopressor effect over basal levels ([1]; anesthetized rats, injection into femoral vein, n=5): 71±24 mm Hg
- duration of activity ([1]; vasoconstrictor activity in rats): on the order of hours

Compound: AM(11-26): AM fragment purified from bovine adrenal medulla (Kitamura et al.) (LRSFGCRFGTCTVQKL; ends and bridges not checked; cysteine pairing not given here; UniProt P35318 105-120, looked up, fragment)
- duration of elevation in blood pressure (blood pressure): about 70 seconds
- vasopressor activity (blood pressure): induced vasopressor activity

Compound: AM(11-28): AM fragment generated by MMP-2 digestion; has the loop but not the carboxy end; synthesized (LRSFGCRFGTCTVQKLAH; disulfide 6-11 (inferred); UniProt P35318 105-122, looked up, fragment)
- effect on blood pressure [1, 3]: do not have any discernible effect

Compound: AM(11-52): AM fragment generated by MMP-2 digestion; maintains intramolecular ring structure and α-amide; synthesized (LRSFGCRFGTCTVQKLAHQIYQFTDKDKDNVAPRSKISPQGY-NH2; disulfide 6-11 (inferred); UniProt P35318 105-146, looked up, fragment)
- effect on blood pressure [1, 3]: induced hypotension
- intracellular elevation of cAMP [2]: equal to the one induced by the intact AM molecule

Compound: AM(23-52): AM fragment generated by MMP-2 digestion; retains only the terminal amide; synthesized (VQKLAHQIYQFTDKDKDNVAPRSKISPQGY-NH2; UniProt P35318 117-146, looked up, fragment)
- effect on blood pressure [1, 3]: do not have any discernible effect

Compound: AM(29-52): AM fragment generated by MMP-2 digestion; retains only the terminal amide; synthesized (QIYQFTDKDKDNVAPRSKISPQGY-NH2; UniProt P35318 123-146, looked up, fragment)
- effect on blood pressure [1, 3]: do not have any discernible effect

Compound: AM-(1-21)-NH2: synthetic N-terminal AM fragment (Watanabe et al.) (YRQSMNNFQGLRSFGCRFGTC-NH2; ends and bridges not checked; UniProt P35318 95-115, looked up, fragment)
- vasoactivity (vasodepressor or vasopressor) (anesthetized rats): vasopressor activity

Compound: AM-(1-25)-NH2: synthetic N-terminal AM fragment (Watanabe et al.) (YRQSMNNFQGLRSFGCRFGTCTVQK-NH2; ends and bridges not checked; UniProt P35318 95-119, looked up, fragment)
- vasoactivity (vasodepressor or vasopressor) (anesthetized rats): vasodepressor activity

Compound: AM-(1-25)-OH: synthetic N-terminal AM fragment (Watanabe et al.) (YRQSMNNFQGLRSFGCRFGTCTVQK-OH; ends and bridges not checked; UniProt P35318 95-119, looked up, fragment)
- vasoactivity (vasodepressor or vasopressor) (anesthetized rats): vasopressor activity

Compound: AM-(1-31)-NH2: synthetic N-terminal AM fragment (Watanabe et al.) (YRQSMNNFQGLRSFGCRFGTCTVQKLAHQIY-NH2; ends and bridges not checked; UniProt P35318 95-125, looked up, fragment)
- vasoactivity (vasodepressor or vasopressor) (anesthetized rats): vasopressor activity

Compound: acetyl-AM-(16-21)-NH2: synthetic N-terminal AM fragment (Watanabe et al.) (Ac-CRFGTC-NH2; ends and bridges not checked; UniProt P35318 110-115, looked up, fragment)
- vasoactivity (vasodepressor or vasopressor) (anesthetized rats): vasopressor activity

Compound: acetyl-AM-(16-36)-NH2: synthetic N-terminal AM fragment (Watanabe et al.) (Ac-CRFGTCTVQKLAHQIYQFTDK-NH2; ends and bridges not checked; UniProt P35318 110-130, looked up, fragment)
- vasoactivity (vasodepressor or vasopressor) (anesthetized rats): vasopressor activity

- degradation by MMP-2 (Human recombinant MMP-2): rapidly cleaves
- degradation by MMP-9 (Human recombinant MMP-9): resistance
- intracellular elevation of cAMP [2]: significant elevation of cAMP
Compound: adrenomedullin [AM]
- reduction of blood pressure (hypotension) ([1]; anesthetized rats, injection into femoral vein, n=5, untreated systolic 125±10 mm Hg): 55±5 mm Hg
